From patent US20260101915A1, “APIGENIN GLYCOSIDES FLAVOR ENHANCERS” (priority 2019, published 2026) come the findings set out here.

Test [1] is described as follows: Paired sensory difference test of whole wheat bread bitterness (20 panelists). Type of test: in vivo. Particulars: paired comparison, 20 participants, nose clips, bread crumb chewed 10 seconds; Pvalue <0.05. The source says: Twenty participants were recruited by Flavor Research and Education Center (FREC) at The Ohio State University. The whole wheat bread samples (control and treatment) were cut into 3 cm×2 cm×1 cm (L×W×H) squares of crumb the day before the test and stored at room temperature in sealed 2 oz cups labeled with a 3-digit codes. Each panelist evaluated one pair of samples containing the control sample and the treatment sample. Panelists used nose clips during the evaluation in order to prevent interactions with olfactory responses. Panelists were instructed to place the entire piece of bread crumb in their mouth, chew for 10 seconds, and evaluate the maximum bitter intensity perceived. After evaluating each sample in the pair, panelists were asked to choose the most bitter sample. The serving order of each bread sample was balanced. Water was used as a palate cleanser.
Compusense Cloud Software version 7.2 (Compusense, Guelph, Canada) was used for data collection. Approval of the sensory evaluation protocol was granted by the Ethics Committee, The Ohio State University (IRB #2019B0402). Paired Student t-tests was executed with SPSS Statistics Version 25 (International Business Machines Corp., Armonk, NY).

The test system of test [2] is pinellic acid formation. Briefly: Pinellic acid concentration in HRW Everest flour dough (LC/MS/MS). Particulars: treatment dough (946.5 ng Schaftoside in 12 μL water per 15 mg HRW Everest flour) vs control; pvalue <0.05. As for the experimental part: For the dough analysis 15 mg of Hard Red Winter (“HRW”) Everest flour was weighed into 2 Eppendorf tubes containing one ¼ inch stainless steel balls, followed by the addition of 12 μL of water (4:5 water/flour ratio) to make a control dough sample. The treatment dough sample was similarly prepared to the control sample with the exception that 946.5 ng of Schaftoside in 12 μL of water (4:5 water/flour ratio) was added instead of pure water.
(§1) The concentration of pinellic acid was analyzed for both control and treatment dough samples using the following method: The 15 mg of dough (or 27 mg of bread) was extracted with 1 mL 1:1 IPA/H2O (v/v) spiked with prostaglandin-F2α ([…]) ISTD. Samples were sonicated for 10 min followed by shaking using the GenoGrinder at 1000 rpm for 10 min. Samples were then diluted 1:50 and sample clean-up was carried out using a 96-well Oasis PRIME HLB plate (1 cc, 30 mg sorbent). After sample load (250 μL) and wash (750 μL, 10% acetonitrile (aq.) with 0.1% formic acid) steps, the retentate was eluted with 500 μL 90% acetonitrile (aq.) with 0.1% formic acid. Samples were further diluted to 2 mL using water with 0.1% formic acid. The standard calibration curve was prepared using 6-points ranging from 0.24 ng/ml to 500 ng/mL.
Quantitative analysis was conducted using MRM acquisition. […]

Test [3] concerns pinellic acid formation. Briefly: Pinellic acid concentration in whole wheat bread (LC/MS/MS). As for the experimental part: as §1
Quantitative analysis was conducted using MRM acquisition. LC/MS/MS analysis was conducted using a Waters ACQUITY H-class UPLC system coupled with a Xevo TQ-S mass spectrometer (Waters Co.). […]
Wheat breads were made using a modified AACC straight-dough bread-making method (AACC, 1999). […] The concentration of pinellic acid was analyzed for both control and spiking whole wheat bread samples as described for the dough analysis. […]

Molecules are shown by their SMILES.

Consider `O=c1cc(-c2ccc(O)cc2)oc2c([C@@H]3OC[C@H](O)[C@H](O)[C@H]3O)c(O)c([C@@H]3O[C@H](CO)[C@@H](O)[C@H](O)[C@H]3O)c(O)c12` [Schaftoside, schaftoside], for which, in test [1], the “perceived bitterness of treatment bread vs control bread” value is reported as “significantly less bitter”. The “reduction in pinellic acid content” value in the test on pinellic acid formation [2] is 30%. Further, the “pinellic acid concentration in treatment bread” value with pinellic acid formation [3] (schaftoside raised from 88.4 to 151.5 mg/kg (68.1 mg/kg flour added) prior to bread making, control bread 308.64 mg/kg, pvalue <0.05) was found to be 228.6 mg/kg. The “reduction in pinellic acid formation” value in the test with pinellic acid formation [3] (treatment vs control, schaftoside added to flour prior to bread making) was 26%.
